Experimental data taken from PMC3024462 (Journal of medicinal chemistry, 2010).

What was measured:
HIV-1MDR/B (X4) = type: cell-based; conditions: number in parentheses
HIV-1MDR/TM (X4) = type: cell-based; conditions: number in parentheses
HIV-1MDR/MM (R5) = type: cell-based; conditions: number in parentheses
HIV-1MDR/C (X4) = type: cell-based; conditions: number in parentheses
HIV-1MDR/G (X4) = type: cell-based; conditions: number in parentheses
HIV-1MDR/JSL (R5) = type: cell-based; conditions: number in parentheses
HIV-1LAI = test: Antiviral activity in MT-2 human T-lymphoid cells exposed to HIV-1LAI, MTT assay; type: cell-based
HIV-1 protease = HIV-1 protease (Human immunodeficiency virus type 1 group M subtype B, UniProt P04585); test: HIV-1 protease enzyme inhibitory assay; type: biochemical; conditions: compared to inhibitor 35a

Structure (SMILES): COC(=O)N[C@H](C(=O)N[C@@H](Cc1ccccc1)[C@@H](O)CN(Cc1ccc(-c2ccccn2)cc1)NC(=O)[C@@H](NC(=O)OC)C(C)(C)C)C(C)(C)C [ATV, atazanavir]
- fold change of EC50 compared to wild-type HIV-1ERS104pre (HIV-1MDR/B (X4)): 174
- fold change of EC50 compared to wild-type HIV-1ERS104pre (HIV-1MDR/TM (X4)): 28
- fold change of EC50 compared to wild-type HIV-1ERS104pre (HIV-1MDR/MM (R5)): 76
- fold change of EC50 compared to wild-type HIV-1ERS104pre (HIV-1MDR/C (X4)): 14
- fold change of EC50 compared to wild-type HIV-1ERS104pre (HIV-1MDR/G (X4)): 7
- fold change of EC50 compared to wild-type HIV-1ERS104pre (HIV-1MDR/JSL (R5)): 109

Structure (SMILES): COc1ccc(S(=O)(=O)N(CC(C)C)C[C@@H](O)[C@H](Cc2ccccc2)NC(=O)O[C@@H]2CCO[C@@H]3OCC[C@@H]32)cc1 [Inhibitor 35b, (3aR,4R,7aS)-Hexahydro-2H-furo[2,3-b]pyran-4-yl ((2S,3R)-3-hydroxy-4-(N-isobutyl-4-methoxyphenylsulfonamido)-1-phenylbutan-2-yl)carbamate]
- ID50 (antiviral activity) (HIV-1LAI; MT-2 cells exposed to HIV-1LAI): 19 nM
- fold change in Ki (loss of enzyme inhibitory potency) (HIV-1 protease): > 20 fold

Structure (SMILES): COc1ccc(S(=O)(=O)N(CC(C)C)C[C@@H](O)[C@H](Cc2ccccc2)NC(=O)O[C@H]2CCC[C@H]3OCC[C@@H]23)cc1 [Inhibitor 35c, (3aR,4S,7aR)-Octahydrobenzofuran-4-yl (2S,3R)-3-hydroxy-4-(N-isobutyl-4-methoxyphenylsulfonamido)-1-phenylbutan-2-yl carbamate]
- fold decrease in antiviral activity (HIV-1LAI; compared to inhibitor 35a): 16 fold
- fold change in Ki (loss of enzyme inhibitory potency) (HIV-1 protease): 2 fold

Structure (SMILES): COc1ccc(S(=O)(=O)N(CC(C)C)C[C@@H](O)[C@H](Cc2ccccc2)NC(=O)O[C@H]2CCO[C@H]3COC[C@H]32)cc1 [Inhibitor 35f, (4S,4aS,7aR)-Hexahydro-2H-furo[3,4-b]pyran-4-yl ((2S,3R)-3-hydroxy-4-(N-isobutyl-4-methoxyphenylsulfonamido)-1-phenylbutan-2-yl)carbamate]
- antiviral activity (in words) (HIV-1LAI; MT-2 cells exposed to HIV-1LAI): no antiviral activity
